Measured values as given in ChEMBL document CHEMBL3611985, “Synthesis and structure-activity relationships of novel 9-oxime acylides with improved bactericidal activity” (2015).
≈ marks a conversion by molar mass, not a printed value.

Legend:
Type in all cases: functional
[1] = test system: Haemophilus influenzae; assay: Antimicrobial activity against azithromycin-susceptible and ampicillin-resistant Haemophilus influenzae 11P037 incubated for 20 to 24 hrs by two-fold microbroth dilution method
[2] = test system: Streptococcus pneumoniae; assay: Antimicrobial activity against Streptococcus pneumoniae 07P390 expressing constitutive ermB incubated for 20 to 24 hrs by two-fold microbroth dilution method
[3] = test system: Streptococcus pneumoniae; assay: Antimicrobial activity against erythromycin-susceptible Streptococcus pneumoniae ATCC 49619 incubated for 20 to 24 hrs by two-fold microbroth dilution method
[4] = test system: Staphylococcus aureus; assay: Antimicrobial activity against methicillin-resistant Staphylococcus aureus PU32 expressing inducible ermA incubated for 20 hrs by two-fold microbroth dilution method; details: PU32, 20 h
[5] = test system: Streptococcus pneumoniae; assay: Antimicrobial activity against penicillin-susceptible Streptococcus pneumoniae PU09 incubated for 20 to 24 hrs by two-fold microbroth dilution method
[6] = test system: Streptococcus pyogenes; assay: Antimicrobial activity against Streptococcus pyogenes 01-968 expressing inducible ermA incubated for 20 to 24 hrs by two-fold microbroth dilution method
[7] = test system: Staphylococcus aureus; assay: Antimicrobial activity against methicillin-resistant Staphylococcus aureus PU20 expressing constitutive ermC incubated for 20 hrs by two-fold microbroth dilution method; details: PU20, 20 h
[8] = test system: Streptococcus pyogenes; assay: Bactericidal activity against Streptococcus pyogenes 12-207 expressing mef incubated for 20 to 24 hrs followed by sub-culturing for 24 hrs in absence of compound
[9] = test system: Staphylococcus aureus; assay: Bactericidal activity against methicillin-resistant Staphylococcus aureus PU32 expressing inducible ermA incubated for 20 hrs followed by sub-culturing for 24 hrs in absence of compound
[10] = test system: Haemophilus influenzae; assay: Bactericidal activity against azithromycin-susceptible and ampicillin-resistant Haemophilus influenzae 11P037 incubated for 20 to 24 hrs followed by sub-culturing for 24 hrs in absence of compound
[11] = test system: Streptococcus pyogenes; assay: Ratio of MBC to MIC against Streptococcus pyogenes 12-207 expressing mef
[12] = test system: Staphylococcus aureus; assay: Ratio of MBC to MIC against methicillin-resistant Staphylococcus aureus PU32 expressing inducible ermA
[13] = test system: Streptococcus pyogenes; assay: Antimicrobial activity against Streptococcus pyogenes 12-207 expressing mef incubated for 20 to 24 hrs by two-fold microbroth dilution method
[14] = test system: Moraxella catarrhalis; assay: Bactericidal activity against erythromycin-susceptible Moraxella catarrhalis 11B366 incubated for 20 hrs followed by sub-culturing for 24 hrs in absence of compound
[15] = test system: Moraxella catarrhalis; assay: Ratio of MBC to MIC against erythromycin-susceptible Moraxella catarrhalis 11B366
[16] = test system: Haemophilus influenzae; assay: Ratio of MBC to MIC against azithromycin-susceptible and ampicillin-resistant Haemophilus influenzae 11P037
[17] = test system: Streptococcus pyogenes; assay: Bactericidal activity against Streptococcus pyogenes 01-968 expressing inducible ermA incubated for 20 to 24 hrs followed by sub-culturing for 24 hrs in absence of compound
[18] = test system: Moraxella catarrhalis; assay: Antimicrobial activity against erythromycin-susceptible Moraxella catarrhalis 11B366 incubated for 20 hrs by two-fold microbroth dilution method; details: 11B366, 20 h

CC[C@H]1OC(=O)[C@H](C)[C@@H](OC(=O)Cc2ccccn2)[C@H](C)[C@@H](O[C@@H]2O[C@H](C)C[C@H](N(C)C)[C@H]2O)[C@](C)(OC)C[C@@H](C)/C(=N\OC/C=C/c2ccnc(NC(=O)Cc3ccccn3)c2)[C@H](C)[C@H]2OC(=O)O[C@@]21C gave an MIC [1] greater than 64 µg/mL, an MIC [2] of 4 µg/mL (≈ 4 µM) and an MIC [3] of 0.125 µg/mL (≈ 0.125 µM). It also gave an MIC [4] of 4 µg/mL (≈ 4 µM), an MIC [5] of 4 µg/mL (≈ 4 µM) and an MIC [6] of 4 µg/mL (≈ 4 µM). The MIC [7] was greater than 64 µg/mL.
Compound CC[C@H]1OC(=O)[C@H](C)[C@@H](OC(=O)Cc2ccccn2)[C@H](C)[C@@H](O[C@@H]2O[C@H](C)C[C@H](N(C)C)[C@H]2O)[C@](C)(OC)C[C@@H](C)/C(=N\OCC#Cc2cncc(NC(=O)Cc3ccccn3)c2)[C@H](C)[C@H]2OC(=O)O[C@@]21C has an MIC [1] greater than 64 µg/mL, an MIC [2] of 1 µg/mL (≈ 1 µM) and an MIC [3] of 0.031 µg/mL (≈ 0.031 µM). It also gave an MIC [4] of 2 µg/mL (≈ 2 µM), an MIC [5] of 2 µg/mL (≈ 2 µM) and an MIC [6] of 4 µg/mL (≈ 4 µM). The MIC [7] was greater than 64 µg/mL.
With CC[C@H]1OC(=O)[C@H](C)[C@@H](OC(=O)Cc2ccccn2)[C@H](C)[C@@H](O[C@@H]2O[C@H](C)C[C@H](N(C)C)[C@H]2O)[C@](C)(OC)C[C@@H](C)/C(=N\OC/C=C/c2cncc(NC(=O)Cc3ccccn3)c2)[C@H](C)[C@H]2OC(=O)O[C@@]21C the MIC [1] was greater than 64 µg/mL, the MIC [2] was 2 µg/mL (≈ 2 µM) and the MIC [3] was 0.062 µg/mL (≈ 0.0619 µM). It also gave an MIC [4] of 2 µg/mL (≈ 2 µM), an MIC [5] of 2 µg/mL (≈ 2 µM) and an MIC [6] of 4 µg/mL (≈ 4 µM). For the same compound, the MIC [7] was greater than 64 µg/mL.
With CC[C@H]1OC(=O)[C@H](C)[C@@H](OC(=O)Cc2ccccn2)[C@H](C)[C@@H](O[C@@H]2O[C@H](C)C[C@H](N(C)C)[C@H]2O)[C@](C)(OC)C[C@@H](C)/C(=N\OCCCc2ccc(NC(=O)Cc3ccccn3)nc2)[C@H](C)[C@H]2OC(=O)O[C@@]21C the MIC [1] was greater than 64 µg/mL, the MIC [2] was 2 µg/mL (≈ 1.99 µM) and the MIC [3] was 0.125 µg/mL (≈ 0.125 µM). It also gave an MIC [4] of 2 µg/mL (≈ 1.99 µM), an MIC [5] of 2 µg/mL (≈ 1.99 µM) and an MIC [6] of 8 µg/mL (≈ 7.97 µM). The MIC [7] was greater than 64 µg/mL.
CC[C@H]1OC(=O)[C@H](C)C(=O)[C@H](C)[C@@H](O[C@@H]2O[C@H](C)C[C@H](N(C)C)[C@H]2O)[C@](C)(OC)C[C@@H](C)C(=O)[C@H](C)[C@H]2N(CCCCn3cnc(-c4cccnc4)c3)C(=O)O[C@]12C [TELITHROMYCIN] gave an MIC [1] of 2 µg/mL (≈ 2.46 µM), an MIC [2] of 0.062 µg/mL (≈ 0.0764 µM) and an MBC [8] of 1 µg/mL (≈ 1.23 µM). The MIC [3] was 0.031 µg/mL (≈ 0.0382 µM), the MBC [9] was greater than 1 µg/mL and the MIC [4] was 0.25 µg/mL (≈ 0.308 µM). The MBC [10] was 4 µg/mL (≈ 4.93 µM), the Ratio [11] was 2 and the Ratio [12] was greater than 8. For the same compound, the MIC [13] was 0.5 µg/mL (≈ 0.616 µM), the MBC [14] was 0.25 µg/mL (≈ 0.308 µM) and the MIC [5] was 0.25 µg/mL (≈ 0.308 µM). It also gave a Ratio [15] of 1, an MIC [6] of 2 µg/mL (≈ 2.46 µM) and a Ratio [16] of 4. The MIC [7] was greater than 64 µg/mL, the MBC [17] was 0.125 µg/mL (≈ 0.154 µM) and the MIC [18] was 0.25 µg/mL (≈ 0.308 µM).
CC[C@H]1OC(=O)[C@H](C)[C@@H](OC(=O)Cc2ccccn2)[C@H](C)[C@@H](O[C@@H]2O[C@H](C)C[C@H](N(C)C)[C@H]2O)[C@](C)(OC)C[C@@H](C)/C(=N\OCCCc2cncc(NC(=O)Cc3ccccn3)c2)[C@H](C)[C@H]2OC(=O)O[C@@]21C gave an MIC [1] greater than 64 µg/mL, an MIC [2] of 4 µg/mL (≈ 3.99 µM) and an MIC [3] of 0.125 µg/mL (≈ 0.125 µM). It also gave an MIC [4] of 4 µg/mL (≈ 3.99 µM), an MIC [5] of 4 µg/mL (≈ 3.99 µM) and an MIC [6] of 8 µg/mL (≈ 7.97 µM). For the same compound, the MIC [7] was greater than 64 µg/mL.
CC[C@H]1OC(=O)[C@H](C)[C@@H](OC(=O)Cc2ccccn2)[C@H](C)[C@@H](O[C@@H]2O[C@H](C)C[C@H](N(C)C)[C@H]2O)[C@](C)(OC)C[C@@H](C)/C(=N\OC/C=C/c2cccnc2N)[C@H](C)[C@H]2OC(=O)O[C@@]21C was tested, and the MIC [1] was 32 µg/mL (≈ 36.3 µM), the MIC [2] was 4 µg/mL (≈ 4.53 µM) and the MIC [3] was 0.062 µg/mL (≈ 0.0703 µM). The MIC [4] was 1 µg/mL (≈ 1.13 µM), the MIC [5] was 1 µg/mL (≈ 1.13 µM) and the MIC [6] was 2 µg/mL (≈ 2.27 µM). It also gave an MIC [7] greater than 64 µg/mL.
For CC[C@H]1OC(=O)[C@H](C)[C@@H](OC(=O)Cc2ccccn2)[C@H](C)[C@@H](O[C@@H]2O[C@H](C)C[C@H](N(C)C)[C@H]2O)[C@](C)(OC)C[C@@H](C)/C(=N\OC/C=C/c2ccc(N)nc2)[C@H](C)[C@H]2OC(=O)O[C@@]21C, the MIC [1] was 32 µg/mL (≈ 36.3 µM), the MIC [2] was 1 µg/mL (≈ 1.13 µM) and the MIC [3] was 0.031 µg/mL (≈ 0.0351 µM). It also gave an MIC [4] of 0.5 µg/mL (≈ 0.567 µM), an MIC [5] of 1 µg/mL (≈ 1.13 µM) and an MIC [6] of 4 µg/mL (≈ 4.53 µM). It also gave an MIC [7] greater than 64 µg/mL.
